Experimental data reported in patent US20110262508A1, “ANTIMICROBIAL COMPOSITIONS, FORMULATIONS AND USES THEREOF” (priority 2007, published 2011).
Converted amounts (≈) assume the structure as drawn. Peptide text beside a SMILES is read from it.

Tested on: A. baumannii
Type: cell-based
Conditions: not given
Source text: Broth dilution methods are e.g., described by Lorian (2007) In: Antibiotics in Laboratory Medicine, Fifth Edition; and In: Clinical and Laboratory Standards Institute, CLSI (formerly NCCLS), In: Methods for Dilution Antimicrobial Susceptibility Tests for Bacteria that Grow Aerobically—Approved Standard—Seventh Edition, CLSI document M7-A7, Villanova, Pa. (NCCLS; January 2006; Vol. 26 No. 2); and In: Clinical and Laboratory Standards Institute, CLSI (formerly NCCLS), Performance Standards for Antimicrobial Susceptibility Testing, Seventeenth Informational Supplement, M100-S17, Vol 27 No. 1 January 2007, all of which are incorporated herein by reference.
The present inventors used such methods to quantitate activity in vitro of antimicrobial peptides of the invention against bacterial isolates, including laboratory strains and 50 clinical isolates of A. baumannii, and S. aureus ATCC Accession No. 2992. Briefly, small volumes of broth are dispensed in sterile, plastic microtiter trays, and 100 μl of serially-diluted antimicrobial peptide (0.1-64 μg) and 100 μl test organism (approximately 1×10^5 C.F.U.), are added. Following aerobic incubation overnight at 35±2° C. Control samples lacked peptide (Growth control), or lacked peptide and bacteria (Sterility control). The trays were examined visually and the minimal inhibitory concentration (MIC) of peptide required to inhibit bacterial growth were determined. The minimum bactericidal concentration (MBC) was estimated by sub-culturing the wells for which no bacterial growth was visible to the naked eye, to thereby determine a concentration of antimicrobial that reduces the original inoculum by at least about 99.9%.

MIC [µM]	MIC (μM) for non-amidated Peptide [µM]	Compound	MBC [µM]	bactericidal or bacteriostatic against A. baumannii
40 (≈ 116 µg/mL)	–	CC[C@H](C)[C@H](NC(=O)[C@H](Cc1c[nH]c2ccccc12)NC(=O)[C@H](CCCNC(=N)N)NC(=O)[C@@H](N)CO)C(=O)N[C@@H](CS)C(=O)N[C@@H](CO)C(=O)N[C@@H](CCSC)C(=O)N[C@@H](C)C(=O)N[C@@H](CCCNC(=N)N)C(=O)N[C@@H](CCCNC(=N)N)C(=O)N[C@@H](CO)C(=O)N[C@@H](CCCNC(=N)N)C(=O)N[C@@H](CCCNC(=N)N)C(=O)N[C@@H](CCCNC(=N)N)C(=O)N[C@@H](CCCNC(=N)N)C(=O)N1CCC[C@H]1C(=O)NCC(=O)N[C@@H](CCCNC(=N)N)C(=O)N[C@@H](CO)C(=O)N[C@H](C(=O)N[C@@H](CCCNC(=N)N)C(=O)N[C@@H](CO)C(=O)N[C@@H](Cc1c[nH]c2ccccc12)C(=O)O)[C@@H](C)O [Ac390] (H-SRWICSMARRSRRRRPGRSTRSW-OH; N-terminus and C-terminus assumed)	40 (≈ 116 µg/mL)	–
40 (≈ 107 µg/mL)	–	CC[C@H](C)[C@H](NC(=O)[C@H](CO)NC(=O)[C@H](Cc1c[nH]c2ccccc12)NC(=O)[C@H](CS)NC(=O)[C@H](CCCNC(=N)N)NC(=O)[C@H](CS)NC(=O)[C@@H](NC(=O)[C@@H](NC(=O)[C@@H]1CCCN1C(=O)[C@H](CCCNC(=N)N)NC(=O)[C@H](C)NC(=O)[C@H](C)NC(=O)[C@H](CS)NC(=O)[C@H](CCCNC(=N)N)NC(=O)[C@H](CCCCN)NC(=O)[C@H](CCCNC(=N)N)NC(=O)[C@@H](N)[C@@H](C)O)[C@@H](C)O)[C@@H](C)O)C(=O)NCC(=O)N[C@@H](CCCNC(=N)N)C(=O)N[C@@H](C)C(=O)N[C@@H](Cc1c[nH]c2ccccc12)C(=O)N[C@@H](CCCCN)C(=O)N[C@@H](C)C(=O)O [Ac364] (H-TRKRCAARPTTCRCWSIGRAWKA-OH; N-terminus and C-terminus assumed)	40 (≈ 107 µg/mL)	–
40 (≈ 118 µg/mL)	–	CC[C@H](C)[C@H](NC(=O)[C@H](CCC(N)=O)NC(=O)[C@H](CCCNC(=N)N)NC(=O)[C@@H](NC(=O)[C@@H](NC(=O)[C@@H]1CCCN1)C(C)C)C(C)C)C(=O)N[C@@H](CC(C)C)C(=O)N[C@@H](CCCNC(=N)N)C(=O)N[C@@H](CO)C(=O)N[C@@H](CCC(=O)O)C(=O)N[C@@H](Cc1c[nH]c2ccccc12)C(=O)N[C@@H](CCCNC(=N)N)C(=O)N[C@@H](CC(N)=O)C(=O)N[C@@H](Cc1c[nH]c2ccccc12)C(=O)N[C@@H](CCCNC(=N)N)C(=O)N[C@@H](CCCCN)C(=O)N[C@@H](CO)C(=O)N[C@@H](CC(C)C)C(=O)N[C@@H](CCC(=O)O)C(=O)N[C@@H](CCSC)C(=O)N[C@@H](CCCNC(=N)N)C(=O)NCC(=O)N[C@@H](CCCNC(=N)N)C(=O)O [Ac437] (H-PVVRQILRSEWRNWRKSLEMRGR-OH; N-terminus and C-terminus assumed)	–	–

Second part, the compound before the results:

Compound	MIC [µM]	MIC (μM) for non-amidated Peptide [µM]	MBC [µM]	bactericidal or bacteriostatic against A. baumannii
CC[C@H](C)[C@H](NC(=O)[C@H](CCCNC(=N)N)NC(=O)[C@@H]1CCCN1C(=O)CNC(=O)[C@H](C)NC(=O)[C@H](CCSC)NC(=O)[C@H](CCCNC(=N)N)NC(=O)[C@H](CC(C)C)NC(=O)[C@H](CCCNC(=N)N)NC(=O)[C@H](CS)NC(=O)[C@H](CS)NC(=O)[C@H](C)NC(=O)[C@H](Cc1c[nH]c2ccccc12)NC(=O)CNC(=O)[C@H](CS)NC(=O)CNC(=O)[C@H](C)NC(=O)[C@H](C)NC(=O)[C@@H]1CCCN1C(=O)[C@H](Cc1ccccc1)NC(=O)[C@H](Cc1c[nH]c2ccccc12)NC(=O)CN)C(=O)NCC(=O)O [Ac451] (H-GWFPAAGCGWACCRLRMAGPRIG-OH; N-terminus and C-terminus assumed)	40 (≈ 97.5 µg/mL)	–	–	–
CC[C@H](C)[C@H](NC(=O)[C@@H]1CCCN1C(=O)[C@@H](NC(=O)[C@@H](NC(=O)[C@H](C)NC(=O)[C@H](CCCNC(=N)N)NC(=O)[C@H](CC(C)C)NC(=O)[C@@H](NC(=O)[C@H](C)NC(=O)[C@H](CCCNC(=N)N)NC(=O)[C@H](CC(C)C)NC(=O)[C@H](CCSC)NC(=O)[C@H](C)NC(=O)[C@@H](NC(=O)[C@@H]1CCCN1C(=O)[C@H](CC(C)C)NC(=O)[C@@H](N)C(C)C)C(C)C)[C@@H](C)O)[C@@H](C)O)C(C)C)C(=O)N[C@@H](CO)C(=O)N[C@@H](CCCNC(=N)N)C(=O)N[C@@H](CO)C(=O)N[C@@H](CCCNC(=N)N)C(=O)N[C@@H](CC(C)C)C(=O)N[C@@H](CCCNC(=N)N)C(=O)O [Ac434] (H-VLPVAMLRATLRATVPISRSRLR-OH; N-terminus and C-terminus assumed)	40 (≈ 103 µg/mL)	–	40 (≈ 103 µg/mL)	–
CSCC[C@H](N)C(=O)NCC(=O)N[C@@H](CCCNC(=N)N)C(=O)N[C@@H](CC(C)C)C(=O)N[C@@H](CO)C(=O)NCC(=O)N[C@H](C(=O)N[C@@H](C)C(=O)N[C@@H](Cc1c[nH]c2ccccc12)C(=O)N[C@@H](CCCNC(=N)N)C(=O)N[C@@H](CCCNC(=N)N)C(=O)N[C@@H](CC(C)C)C(=O)N[C@@H](CO)C(=O)N[C@@H](CC(C)C)C(=O)N[C@@H](CCCNC(=N)N)C(=O)N[C@@H](Cc1c[nH]cn1)C(=O)N[C@@H](CS)C(=O)N[C@@H](CCC(=O)O)C(=O)N[C@@H](CS)C(=O)NCC(=O)N[C@@H](CCCNC(=N)N)C(=O)N[C@@H](CCCNC(=N)N)C(=O)N1CCC[C@H]1C(=O)O)C(C)C [Ac370] (H-MGRLSGVAWRRLSLRHCECGRRP-OH; N-terminus and C-terminus assumed)	20 (≈ 53.9 µg/mL)	20	20 (≈ 53.9 µg/mL)	–
CC[C@H](C)[C@H](NC(=O)[C@H](C)NC(=O)[C@H](Cc1c[nH]c2ccccc12)NC(=O)[C@H](CCCNC(=N)N)NC(=O)[C@H](CC(C)C)NC(=O)[C@H](CO)NC(=O)CNC(=O)[C@H](C)NC(=O)[C@H](CCCNC(=N)N)NC(=O)[C@H](Cc1c[nH]cn1)NC(=O)[C@H](CC(=O)O)NC(=O)[C@@H](NC(=O)[C@@H]1CCCN1C(=O)[C@H](CCCNC(=N)N)NC(=O)[C@@H]1CCCN1C(=O)[C@@H](N)CCCNC(=N)N)C(C)C)C(=O)N[C@@H](C)C(=O)N[C@@H](Cc1ccccc1)C(=O)N[C@@H](CCC(N)=O)C(=O)N[C@H](C(=O)N[C@@H](CO)C(=O)N[C@@H](CO)C(=O)N[C@@H](CC(C)C)C(=O)O)C(C)C [Ac469] (H-RPRPVDHRAGSLRWAIAFQVSSL-OH; N-terminus and C-terminus assumed)	50 (≈ 131 µg/mL)	–	–	bacteriostatic
CC[C@H](C)[C@H](NC(=O)[C@H](CCCNC(=N)N)NC(=O)[C@H](CCCNC(=N)N)NC(=O)[C@H](CC(C)C)NC(=O)[C@H](CC(=O)O)NC(=O)[C@H](CCC(=O)O)NC(=O)[C@H](CCCNC(=N)N)NC(=O)[C@H](CC(C)C)NC(=O)[C@H](CCCNC(=N)N)NC(=O)CNC(=O)[C@H](CO)NC(=O)[C@H](Cc1ccccc1)NC(=O)[C@@H](NC(=O)[C@H](CC(C)C)NC(=O)[C@@H](NC(=O)CNC(=O)[C@H](Cc1ccccc1)NC(=O)[C@@H](NC(=O)[C@@H](NC(=O)CNC(=O)CN)C(C)C)C(C)C)C(C)C)[C@@H](C)O)C(=O)N[C@@H](CS)C(=O)N[C@@H](CCCNC(=N)N)C(=O)O [Ac338] (H-GGVVFGVLTFSGRLREDLRRICR-OH; N-terminus and C-terminus assumed)	30 (≈ 78.2 µg/mL)	–	30 (≈ 78.2 µg/mL)	–
CC[C@H](C)[C@H](NC(=O)[C@H](CCC(N)=O)NC(=O)[C@H](CCCNC(=N)N)NC(=O)[C@H](CS)NC(=O)[C@@H](NC(=O)[C@H](CCCNC(=N)N)NC(=O)[C@H](CCCNC(=N)N)NC(=O)[C@H](CC(C)C)NC(=O)[C@H](CC(=O)O)NC(=O)[C@H](CCC(=O)O)NC(=O)[C@H](CCCNC(=N)N)NC(=O)[C@H](CC(C)C)NC(=O)[C@H](CCCNC(=N)N)NC(=O)CNC(=O)[C@H](CO)NC(=O)[C@H](Cc1ccccc1)NC(=O)[C@@H](NC(=O)[C@H](CC(C)C)NC(=O)[C@@H](NC(=O)CN)C(C)C)[C@@H](C)O)[C@@H](C)CC)C(=O)N[C@@H](CO)C(=O)N[C@@H](C)C(=O)N[C@@H](Cc1ccc(O)cc1)C(=O)O [Ac339] (H-GVLTFSGRLREDLRRICRQISAY-OH; N-terminus and C-terminus assumed)	20 (≈ 54.2 µg/mL)	20	40 (≈ 108 µg/mL)	–
CC[C@H](C)[C@H](NC(=O)[C@H](CCC(N)=O)NC(=O)[C@H](CCCNC(=N)N)NC(=O)[C@H](CS)NC(=O)[C@@H](NC(=O)[C@H](CCCNC(=N)N)NC(=O)[C@H](CCCNC(=N)N)NC(=O)[C@H](CC(C)C)NC(=O)[C@H](CC(=O)O)NC(=O)[C@H](CCC(=O)O)NC(=O)[C@H](CCCNC(=N)N)NC(=O)[C@H](CC(C)C)NC(=O)[C@H](CCCNC(=N)N)NC(=O)CNC(=O)[C@@H](N)CO)[C@@H](C)CC)C(=O)N[C@@H](CO)C(=O)N[C@@H](C)C(=O)N[C@@H](Cc1ccc(O)cc1)C(=O)N[C@@H](CCCCN)C(=O)N[C@@H](CO)C(=O)N[C@@H](CC(=O)O)C(=O)N[C@@H](CO)C(=O)N[C@@H](CO)C(=O)O [Ac340] (H-SGRLREDLRRICRQISAYKSDSS-OH; N-terminus and C-terminus assumed)	40 (≈ 108 µg/mL)	–	40 (≈ 108 µg/mL)	–

Same assay, conditions: A. baumannii (Table 8); reduces original inoculum by at least about 99.9%

Compound	MBC (μM)
CC[C@H](C)[C@H](NC(=O)[C@H](C)NC(=O)[C@H](Cc1c[nH]c2ccccc12)NC(=O)[C@H](CCCNC(=N)N)NC(=O)[C@H](CC(C)C)NC(=O)[C@H](CO)NC(=O)CNC(=O)[C@H](C)NC(=O)[C@H](CCCNC(=N)N)NC(=O)[C@H](Cc1c[nH]cn1)NC(=O)[C@H](CC(=O)O)NC(=O)[C@@H](NC(=O)[C@@H]1CCCN1C(=O)[C@H](CCCNC(=N)N)NC(=O)[C@@H]1CCCN1C(=O)[C@@H](N)CCCNC(=N)N)C(C)C)C(=O)N[C@@H](C)C(=O)N[C@@H](Cc1ccccc1)C(=O)N[C@@H](CCC(N)=O)C(=O)N[C@H](C(=O)N[C@@H](CO)C(=O)N[C@@H](CO)C(=O)N[C@@H](CC(C)C)C(=O)O)C(C)C [Ac469] (H-RPRPVDHRAGSLRWAIAFQVSSL-OH; N-terminus and C-terminus assumed)	bacteriostat
